Reference: publication PMC11568214, “The impact of 9-azaglycophymine and phenylguanidine derivatives on the proliferation of various breast cancer cell lines in vitro and in vivo” (Scientific Reports, 2024)
Values joined by “and” are separate entries in the source; they are usually repeats but may differ in a detail not shown here. Equal entries are not always repeated. “Also recorded” adds a separate entry of the source.

Legend:
BT-474 [1] = assay: ROS production, DHR staining, flow cytometry; type: cell-based, human; set-up: key: ↑: induction; ↓: inhibition; ↔: no effect; settings: BT-474, IC50 for 72 h
Protocol: (§1) The cells were stained with CFSE (1 µM) in PBS containing 0.1% (v/v) FCS for 10 min. Afterwards, cells were washed with PBS, and then seeded with growth medium in 6-well plates. The plates were incubated for 24 h under standard culture conditions. […] Subsequently, the cells were detached using 0.5 mL of 0.05% (v/v) Trypsin–EDTA for 3 min at 37 °C. Then trypsin was deactivated by the addition of FCS-containing growth medium. The cell suspensions were collected, centrifuged for 3 min at 800 rpm, and the cell pellets were resuspended in fresh PBS. Finally, the samples were analyzed by using flow cytometry. For ROS production analyses, the procedure was performed exactly as described above for the cell division experiments, except that the CFSE staining solution was replaced by DHR staining solution resulting in 1 µM of DHR in PBS containing 0.1% (v/v) FCS[34],[35].

HCC1937 [2] = assay: ROS production, DHR staining, flow cytometry; type: cell-based, human; set-up: key: ↑: induction; ↓: inhibition; ↔: no effect; settings: HCC1937, IC50 for 72 h
Protocol: as §1

MCF-7 [3] = assay: ROS production, DHR staining, flow cytometry; type: cell-based, human; set-up: key: ↑: induction; ↓: inhibition; ↔: no effect; settings: MCF-7, IC50 for 72 h
Protocol: as §1

MDA-MB-468 [4] = assay: ROS production, DHR staining, flow cytometry; type: cell-based, human; set-up: key: ↑: induction; ↓: inhibition; ↔: no effect; settings: MDA-MB-468, IC50 for 72 h
Protocol: as §1

4T1 [5] = assay: NO production, DAF-FM staining, flow cytometry; type: cell-based, mouse; set-up: key: ↑: induction; ↓: inhibition; ↔: no effect; settings: 4T1, IC50 for 72 h
Protocol: Afterwards, the medium was discarded and the cells were stained with DAF-FM (5 µM) in RPMI1640 with 10% (v/v) FCS for 1 h at 37 °C. The stain was completed by additional incubation for 15 min with serum-free medium. The cells were then detached, re-suspended in PBS and analyzed by flow cytometry.

BT-474 [6] = assay: Autophagy induction, acridine orange staining, flow cytometry; type: cell-based, human; set-up: key: ↑: induction; ↓: inhibition; ↔: no effect; settings: BT-474, IC50 for 72 h
Protocol: (§2) Cells were seeded in 6-well plates and incubated for 24 h under standard culture conditions. […] For the analyses of autophagy induction, the cell suspension was centrifuged for 3 min at 800 rpm, and the cell pellet was stained with 1 mL of AO working solution (1 µg/mL of AO in growth medium). Cells were incubated for 15 min under standard culture conditions. The cell suspension was centrifuged for 3 min at 800 rpm, and the cell pellet was washed with 1 mL of fresh PBS. Finally, all samples were analyzed by using flow cytometry (FACSAria III, BD Biosciences, New Jersey, USA).

HCC1937 [7] = assay: as above; type: cell-based, human; set-up: key: ↑: induction; ↓: inhibition; ↔: no effect; settings: HCC1937, IC50 for 72 h
Protocol: as §2

MCF-7 [8] = assay: as above; type: cell-based, human; set-up: key: ↑: induction; ↓: inhibition; ↔: no effect; settings: MCF-7, IC50 for 72 h
Protocol: as §2

MDA-MB-468 [9] = assay: as above; type: cell-based, human; set-up: key: ↑: induction; ↓: inhibition; ↔: no effect; settings: MDA-MB-468, IC50 for 72 h
Protocol: as §2

4T1 [10] = assay: as above; type: cell-based, mouse; set-up: key: ↑: induction; ↓: inhibition; ↔: no effect; settings: 4T1, IC50 for 72 h
Protocol: as §2

4T1 [11] = assay: Cell division analysis, CFSE staining, flow cytometry; type: cell-based, mouse; set-up: key: ↑: induction; ↓: inhibition; ↔: no effect; settings: 4T1, IC50 for 72 h
Protocol: as §1, with “cytometry.” for “cytometry. For ROS production analyses, the procedure was performed exactly as described above for the cell division experiments, except that the CFSE staining solution was replaced by DHR staining solution resulting in 1 µM of DHR in PBS containing 0.1% (v/v) FCS[34],[35].”

[12] = Urine analysis with Multistix urine test stripes in the 4T1 in vivo study; set-up: species or system BALB/c mice; key to Glucose (urine) / Blood (urine): -: marker was not detectable in the respective urine sample; +: marker was detected
Protocol: On day 6, the mice were assigned to the study groups using a stratified randomization approach, ensuring that the mean tumor volumes were as similar as possible across all groups. […] The vehicle was 4% (v/v) DMSO in PBS, and the administration route was intraperitoneal (i.p.). The animals were treated daily on days 6–10 (starting from the day when tumors became palpable), 13–17 and day 20. Animals were visually examined daily, and urine samples were collected on the first and last day of treatment and analyzed by Multistix urine test stripes (Siemens Healthineers, Erlangen, Germany). On day 21 of the experiment, the mice were sacrificed using cervical dislocation. Following the sacrifice, the tumor diameters were measured using a caliper. The tumor volume (V) was then calculated using the formula V = L*W^2*0.52[36], where L represents the longest diameter and W the shortest diameter of the tumor.

[13] = Histopathology of tumors, kidneys, livers and spleens in the 4T1 in vivo study; set-up: species or system BALB/c mice
Source text: Tissue samples of tumors, kidneys, livers and spleens were fixed in 4% (v/v) formalin. After fixation, tissues were embedded in paraffin blocks, and 4 µm thick sections were obtained, mounted on glass slides, stained with Hematoxylin Eosin, and analyzed by using an Olympus BX43 microscope (Olympus, Tokyo, Japan). All slides were scanned with a Leica Biosystems Aperio AT2 with ×400 magnification (n = 3 per group). Virtual slides generated from Leica Aperio AT2 (Wetzlar, Germany) were additionally analyzed with Aperio ImageScope (v12.4.3.5008) and with FIJI-ImageJ software.

O=c1[nH]c(Nc2ccc([N+](=O)[O-])cc2)nc2ccccc12 [Compound 19, 4′-nitro-9-aza-glycophymine]
ROS (BT-474 [1]): ↓
ROS (HCC1937 [2]): ↓
ROS (MCF-7 [3]): ↔
ROS (MDA-MB-468 [4]): ↔
NO (4T1 [5]): ↑
Autophagy (BT-474 [6]): ↔
Autophagy (HCC1937 [7]): ↔
Autophagy (MCF-7 [8]): ↔
Autophagy (MDA-MB-468 [9]): ↔
Autophagy (4T1 [10]): ↔
Proliferation (4T1 [11]): ↓
Bilirubin (urine) ([12]; 5 mg/kg, Day 6, three mice): small
Blood (urine) ([12]; 5 mg/kg, Day 6, three mice): -
Ketones (urine) ([12]; 5 mg/kg, Day 6, three mice): 10 mg/dL
Leucocytes (urine) ([12]; 5 mg/kg, Day 6, three mice): 25 cells/µL
Specific gravity (urine) ([12]; 5 mg/kg, Day 6, three mice): 1.025 and 1.000 and 1.030
pH (urine) ([12]; 5 mg/kg, Day 6, three mice): 6 and 5
Bilirubin (urine) ([12]; 5 mg/kg, Day 20, three mice): small
Blood (urine) ([12]; 5 mg/kg, Day 20, three mice): -
Glucose (urine) ([12]; 5 mg/kg, Day 20, three mice): -
Ketones (urine) ([12]; 5 mg/kg, Day 20, three mice): 10 mg/dL
Leucocytes (urine) ([12]; 5 mg/kg, Day 20, three mice): 25 cells/µL
Proteins (urine) ([12]; 5 mg/kg, Day 20, three mice): 100 mg/dL
Specific gravity (urine) ([12]; 5 mg/kg, Day 20, three mice): 1.030 and 1.025
pH (urine) ([12]; 5 mg/kg, Day 20, three mice): 6
Bilirubin (urine) ([12]; 20 mg/kg, Day 6, three mice): small
Blood (urine) ([12]; 20 mg/kg, Day 6, three mice): -
Ketones (urine) ([12]; 20 mg/kg, Day 6, three mice): 10 mg/dL
Leucocytes (urine) ([12]; 20 mg/kg, Day 6, three mice): 25 cells/µL
Proteins (urine) ([12]; 20 mg/kg, Day 6, three mice): 30 mg/dL
Specific gravity (urine) ([12]; 20 mg/kg, Day 6, three mice): 1.025 and 1.030
Uroglobin (urine) ([12]; 20 mg/kg, Day 6, three mice): 4 mg/dL
pH (urine) ([12]; 20 mg/kg, Day 6, three mice): 6 and 5
Bilirubin (urine) ([12]; 20 mg/kg, Day 20, three mice): small; also recorded: moderate
Blood (urine) ([12]; 20 mg/kg, Day 20, three mice): -
Ketones (urine) ([12]; 20 mg/kg, Day 20, three mice): 10 mg/dL and 5 mg/dL
Specific gravity (urine) ([12]; 20 mg/kg, Day 20, three mice): 1.030 and 1.025
Uroglobin (urine) ([12]; 20 mg/kg, Day 20, three mice): 4 mg/dL and 8 mg/dL
pH (urine) ([12]; 20 mg/kg, Day 20, three mice): 5 and 6
morphological changes in kidney, spleen and liver tissue ([13]; 5 and 20 mg/kg i.p., day 21, compared to control group): did not cause significant morphological changes
extent of tumor necrosis ([13]; treated animals in comparison to the control group, day 21): a higher extent of necrosis was found in treated animals
